ChEMBL document CHEMBL4765282, “Design, synthesis and biological evaluation of 1H-pyrazolo [3,4-d]pyrimidine derivatives as PAK1 inhibitors that trigger apoptosis, ER stress and anti-migration effect in MDA-MB-231 cells” (Eur J Med Chem, 2020)
The source made the active and inactive calls. The calls are words filed in the database; no cut-off is given here.

Tests used:
[1] = organism: Homo sapiens; test: Selectivity ratio of IC50 for inhibition of PAK3 (unknown origin) to IC50 for inhibition of PAK1 (unknown origin)
[2] = biological target: Serine/threonine-protein kinase PAK 2 (Homo sapiens, UniProt Q13177); test: Inhibition of PAK2 (unknown origin) […] measured after 40 mins by ADP-glo kinase assay
[3] = biological target: Serine/threonine-protein kinase PAK 3 (Homo sapiens, UniProt O75914); test: Inhibition of PAK3 (unknown origin) […] measured after 40 mins by ADP-glo kinase assay
[4] = system: MDA-MB-231; test: Down regulation of PAK1 expression in human MDA-MB-231 cells at 20 uM measured after 24 hrs by immunofluorescence analysis; format: functional, cell-based
[5] = biological target: T1, Serine/threonine-protein kinase PAK 1 (Homo sapiens, UniProt Q13153); test: Inhibition of PAK1 phosphorylation at Ser199 residues in human MDA-MB-231 cells at 10 to 40 uM measured after 24 hrs by Western blot analysis; format: cell-based; settings: dose 10-40 µM
[6] = biological target: T1, Serine/threonine-protein kinase PAK 1; test: Inhibition of PAK1 in human MDA-MB-231 cells assessed as reduction in ERK expression at 10 to 40 uM measured after 24 hrs by Western blot analysis; format: cell-based; settings: dose 10-40 µM
[7] = system: MDA-MB-231; test: Induction of apoptosis in human MDA-MB-231 cells assessed as increase in late apoptosis measured after 24 hrs by Annexin V-FITC/propidium iodide staining based flow cytometry; format: functional, cell-based
[8] = system: MDA-MB-231; test: Induction of apoptosis in human MDA-MB-231 cells assessed as late apoptotic cells at 10 uM measured after 24 hrs by Annexin V-FITC/propidium iodide staining based flow cytometry (reference value: 0.57%); format: functional
[9] = system: MDA-MB-231; test: Induction of apoptosis in human MDA-MB-231 cells assessed as necrotic cells at 10 uM measured after 24 hrs by Annexin V-FITC/propidium iodide staining based flow cytometry (reference value: 0.16%); format: functional
[10] = system: MDA-MB-231; test: Induction of apoptosis in human MDA-MB-231 cells assessed as viable cells at 20 uM measured after 24 hrs by Annexin V-FITC/propidium iodide staining based flow cytometry (reference value: 98.46%); format: functional; settings: read-out: Activity
[11] = system: MDA-MB-231; test: Induction of apoptosis in human MDA-MB-231 cells assessed as early apoptotic cells at 20 uM measured after 24 hrs by Annexin V-FITC/propidium iodide staining based flow cytometry (reference value: 0.81%); format: functional
[12] = system: MDA-MB-231; test: Induction of apoptosis in human MDA-MB-231 cells assessed as necrotic cells at 40 uM measured after 24 hrs by Annexin V-FITC/propidium iodide staining based flow cytometry (reference value: 0.16%); format: functional
[13] = system: MDA-MB-231; test: Induction of apoptosis in human MDA-MB-231 cells assessed as upregulation of Bax expression at 10 to 40 uM measured after 24 hrs by Western blot analysis; format: functional, cell-based; settings: dose 10-40 µM
[14] = system: MDA-MB-231; test: Induction of apoptosis in human MDA-MB-231 cells assessed as down regulation of Bcl-2 expression at 10 to 40 uM measured after 24 hrs by Western blot analysis; format: functional, cell-based; settings: dose 10-40 µM
[15] = system: MDA-MB-231; test: Induction of apoptosis in human MDA-MB-231 cells assessed as increase in caspase-3 cleavage at 10 to 40 uM measured after 24 hrs by Western blot analysis; format: functional, cell-based; settings: dose 10-40 µM
[16] = system: MDA-MB-231; test: Induction of apoptosis in human MDA-MB-231 cells assessed as increase in caspase-8 cleavage at 10 to 40 uM measured after 24 hrs by Western blot analysis; format: functional, cell-based; settings: dose 10-40 µM
[17] = Effect on PPP1R15A gene expression in human MDA-MB-231 cells by Trizol reagent based RNA sequencing analysis relative to control; format: functional
[18] = Effect on GARS gene expression in human MDA-MB-231 cells by Trizol reagent based RNA sequencing analysis relative to control; format: functional
[19] = Effect on HYOU1 gene expression in human MDA-MB-231 cells by Trizol reagent based RNA sequencing analysis relative to control; format: functional
[20] = Effect on DDIT3 gene expression in human MDA-MB-231 cells by Trizol reagent based RNA sequencing analysis relative to control; format: functional
[21] = Effect on G0S2 gene expression in human MDA-MB-231 cells by Trizol reagent based RNA sequencing analysis relative to control; format: functional
[22] = Effect on GDF15 gene expression in human MDA-MB-231 cells by Trizol reagent based RNA sequencing analysis relative to control; format: functional
[23] = Effect on CHAC1 gene expression in human MDA-MB-231 cells by Trizol reagent based RNA sequencing analysis relative to control; format: functional
[24] = Effect on TRIB3 gene expression in human MDA-MB-231 cells by Trizol reagent based RNA sequencing analysis relative to control; format: functional
[25] = Effect on CASC10 gene expression in human MDA-MB-231 cells by Trizol reagent based RNA sequencing analysis relative to control; format: functional
[26] = Effect on ALPP gene expression in human MDA-MB-231 cells by Trizol reagent based RNA sequencing analysis relative to control; format: functional
[27] = Effect on CTGF gene expression in human MDA-MB-231 cells by Trizol reagent based RNA sequencing analysis relative to control; format: functional
[28] = Effect on TCP10L gene expression in human MDA-MB-231 cells by Trizol reagent based RNA sequencing analysis relative to control; format: functional
[29] = Effect on CDHR4 gene expression in human MDA-MB-231 cells by Trizol reagent based RNA sequencing analysis relative to control; format: functional; settings: dose 10-40 µM; time 24 hrs
[30] = system: MDA-MB-231; test: Upregulation of PERK expression in human MDA-MB-231 cells at 10 to 40 uM measured after 24 hrs by Western blot analysis; format: functional, cell-based; settings: dose 10-40 µM
[31] = system: MDA-MB-231; test: Upregulation of phosphorylated PERK Thr980 expression in human MDA-MB-231 cells at 10 to 40 uM measured after 24 hrs by Western blot analysis; format: functional, cell-based; settings: dose 10-40 µM
[32] = system: MDA-MB-231; test: Upregulation of XBP-1s expression in human MDA-MB-231 cells at 10 to 40 uM measured after 24 hrs by Western blot analysis; format: functional, cell-based; settings: dose 10-40 µM
[33] = system: MDA-MB-231; test: Inhibition of PI3K/AKT/mTOR signaling in human MDA-MB-231 cells assessed as reduction in AKT phosphorylation at 10 to 40 uM after 24 hrs by Western blot analysis; format: cell-based; settings: dose 10-40 µM
[34] = system: MDA-MB-231; test: Inhibition of PI3K/AKT/mTOR signaling in human MDA-MB-231 cells assessed as reduction in mTOR phosphorylation at 10 to 40 uM after 24 hrs by Western blot analysis; format: cell-based; settings: dose 10-40 µM
[35] = system: MDA-MB-231; test: Down regulation of JNK expression in human MDA-MB-231 cells at 20 uM measured after 24 hrs by immunofluorescence assay; format: functional, cell-based
[36] = system: MDA-MB-231; test: Inhibition of human MDA-MB-231 cell migration measured after 24 hrs by phase contrast microscopy based transwell assay; format: functional
[37] = system: MDA-MB-231; test: Up regulation of FOXO3a expression in human MDA-MB-231 cells at 10 to 40 uM measured after 24 hrs by Western blot analysis; format: functional, cell-based; settings: dose 10-40 µM
[38] = system: MDA-MB-231; test: Up regulation of MMP-2 expression in human MDA-MB-231 cells at 10 to 40 uM measured after 24 hrs by Western blot analysis; format: functional, cell-based; settings: dose 10-40 µM

T1 sequence (Q13153 whole entry): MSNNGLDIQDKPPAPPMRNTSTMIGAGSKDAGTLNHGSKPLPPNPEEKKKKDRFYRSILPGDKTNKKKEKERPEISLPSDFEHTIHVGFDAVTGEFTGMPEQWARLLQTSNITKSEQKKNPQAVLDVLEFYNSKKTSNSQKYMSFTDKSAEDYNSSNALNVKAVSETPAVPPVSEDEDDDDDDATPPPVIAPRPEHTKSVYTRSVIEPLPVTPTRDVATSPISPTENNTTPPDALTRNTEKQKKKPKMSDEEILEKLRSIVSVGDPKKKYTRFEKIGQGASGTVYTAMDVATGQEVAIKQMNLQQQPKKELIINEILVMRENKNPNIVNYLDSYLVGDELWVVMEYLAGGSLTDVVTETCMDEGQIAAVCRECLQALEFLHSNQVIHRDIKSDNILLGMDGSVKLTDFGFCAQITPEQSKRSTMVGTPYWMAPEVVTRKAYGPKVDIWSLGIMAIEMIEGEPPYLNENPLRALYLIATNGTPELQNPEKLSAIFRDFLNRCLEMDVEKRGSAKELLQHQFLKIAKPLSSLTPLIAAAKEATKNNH
Serine/threonine-protein kinase PAK 3, sequence (O75914 whole entry): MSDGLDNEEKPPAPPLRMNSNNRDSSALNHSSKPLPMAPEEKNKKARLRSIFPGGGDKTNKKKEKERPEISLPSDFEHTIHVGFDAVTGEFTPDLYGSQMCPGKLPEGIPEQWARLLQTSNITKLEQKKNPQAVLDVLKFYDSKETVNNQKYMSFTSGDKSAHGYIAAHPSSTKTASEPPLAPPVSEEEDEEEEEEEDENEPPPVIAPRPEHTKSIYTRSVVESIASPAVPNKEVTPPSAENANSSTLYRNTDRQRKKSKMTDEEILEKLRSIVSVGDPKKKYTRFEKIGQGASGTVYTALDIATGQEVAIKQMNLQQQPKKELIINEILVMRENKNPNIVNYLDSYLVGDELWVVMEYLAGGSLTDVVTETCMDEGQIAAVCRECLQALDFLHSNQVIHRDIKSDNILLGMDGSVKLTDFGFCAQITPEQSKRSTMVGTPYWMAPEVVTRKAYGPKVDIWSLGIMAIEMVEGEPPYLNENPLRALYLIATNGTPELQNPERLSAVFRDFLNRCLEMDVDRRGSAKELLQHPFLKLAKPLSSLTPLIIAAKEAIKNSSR
Serine/threonine-protein kinase PAK 2, sequence (Q13177 whole entry): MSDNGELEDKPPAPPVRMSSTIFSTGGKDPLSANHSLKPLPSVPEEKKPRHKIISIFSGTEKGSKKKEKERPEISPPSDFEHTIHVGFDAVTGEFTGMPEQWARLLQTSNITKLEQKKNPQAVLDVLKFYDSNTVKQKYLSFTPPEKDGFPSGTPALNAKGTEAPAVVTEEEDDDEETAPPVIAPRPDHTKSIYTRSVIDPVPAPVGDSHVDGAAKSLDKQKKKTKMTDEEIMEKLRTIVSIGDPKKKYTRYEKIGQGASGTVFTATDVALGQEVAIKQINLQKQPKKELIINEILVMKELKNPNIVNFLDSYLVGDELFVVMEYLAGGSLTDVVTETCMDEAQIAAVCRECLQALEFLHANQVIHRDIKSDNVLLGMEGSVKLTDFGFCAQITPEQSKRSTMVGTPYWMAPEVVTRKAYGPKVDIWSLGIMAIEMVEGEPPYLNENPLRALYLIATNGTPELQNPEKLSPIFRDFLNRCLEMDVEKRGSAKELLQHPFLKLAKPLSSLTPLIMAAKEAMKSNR

**Q.** For O=C(Nc1cc(C(F)(F)F)cc(C(F)(F)F)c1)NC1CCN(c2ncnc3[nH]ncc23)CC1, which Ratio IC50 [1] is on record?
**A.** 5

**Q.** What about the IC50 [2] of the same compound?
**A.** 1040 nM

**Q.** And the IC50 [3]?
**A.** 1370 nM

**Q.** What about the Activity [4] of the same compound?
**A.** Active

**Q.** What about the inhibition [5] of the same compound?
**A.** Active

**Q.** And the inhibition [6]?
**A.** Active

**Q.** What about the Activity [7] of the same compound?
**A.** Dose-dependent effect

**Q.** What about the Activity [8] of the same compound?
**A.** 3.22%

**Q.** And the Activity [9]?
**A.** 1.64%

**Q.** And the viability at 20 µM [10]?
**A.** 77.3%

**Q.** And the Activity [11]?
**A.** 15.2%

**Q.** What about the Activity [12] of the same compound?
**A.** 0.91%

**Q.** What about the Activity [13] of the same compound?
**A.** Active

**Q.** And the Activity [14]?
**A.** Active

**Q.** What about the Activity [15] of the same compound?
**A.** Active

**Q.** And the Activity [16]?
**A.** Active

**Q.** What about the “fold change (FC)” value [17] of the same compound?
**A.** >2

**Q.** What about the “fold change (FC)” value [18] of the same compound?
**A.** >2

**Q.** And the “fold change (FC)” value [19]?
**A.** >2

**Q.** And the “fold change (FC)” value [20]?
**A.** >2

**Q.** What about the “fold change (FC)” value [21] of the same compound?
**A.** >2

**Q.** And the “fold change (FC)” value [22]?
**A.** >2

**Q.** What about the “fold change (FC)” value [23] of the same compound?
**A.** >2

**Q.** And the “fold change (FC)” value [24]?
**A.** >2

**Q.** What about the “fold change (FC)” value [25] of the same compound?
**A.** >2

**Q.** And the “fold change (FC)” value [26]?
**A.** >2

**Q.** What about the “fold change (FC)” value [27] of the same compound?
**A.** >2

**Q.** What about the “fold change (FC)” value [28] of the same compound?
**A.** >2

**Q.** What about the “fold change (FC)” value [29] of the same compound?
**A.** >2

**Q.** And the Activity [30]?
**A.** Active

**Q.** And the Activity [31]?
**A.** Active

**Q.** What about the Activity [32] of the same compound?
**A.** Active

**Q.** What about the inhibition [33] of the same compound?
**A.** Active

**Q.** And the inhibition [34]?
**A.** Active

**Q.** What about the Activity [35] of the same compound?
**A.** inactive

**Q.** And the inhibition [36]?
**A.** Active

**Q.** And the Activity [37]?
**A.** Active

**Q.** What about the Activity [38] of the same compound?
**A.** Active
